Laboratory results taken from US7060709B2, “Method of treating hepatic fibrosis” (Wyeth, priority 2003, dated 2006).

Tests used:
human tumor xenografts = conditions: nude mice, cited from earlier work
[1] = tested on: human glioblastoma cell line; conditions: human glioblastoma cell line in vitro; cited from earlier work
[2] = tested on: histologically diverse tumor cells; conditions: cited from earlier work
orthotopic glioma = conditions: nude mice; cited from earlier work
[3] = stability of CCI-779 in parenteral cosolvent formulation; format: physicochemical; conditions: citric acid at a concentration of less than 0.01% w/v
Source text: In this embodiment, the stability of CCI-779 in parenterally acceptable alcoholic cosolvents is enhanced by addition of an antioxidant to the formulation. Acceptable antioxidants include, but are not limited to, citric acid, d,l-α-tocopherol, BHA, BHT, monothioglycerol, ascorbic acid, propyl gallate, and mixtures thereof. Generally, the parenteral formulations useful in this embodiment of the invention will contain an antioxidant component(s) in a concentration ranging from 0.001% to 1% w/v, or 0.01% to 0.5% w/v, of the cosolvent concentrate, although lower or higher concentrations may be desired. Of the antioxidants, d,l-α-tocopherol is particularly desirable and is used at a concentration of 0.01 to 0.1% w/v with a preferred concentration of 0.075% w/v of the cosolvent concentrate.
Examples of such chelating agents include, e.g., citric acid, acetic acid, and ascorbic acid (which may function as both a classic antioxidant and a chelating agent in the present formulations). Other chelating agents include such materials as are capable of binding metal ions in solution, such as ethylene diamine tetra acetic acid (EDTA), its salts, or amino acids such as glycine are capable of enhancing the stability of CCI-779. […] Optimal concentrations for the selected antioxidant(s) can be readily determined by one of skill in the art, based upon the information provided herein.

In the case of `CO[C@H]1C[C@@H]2CC[C@@H](C)[C@@](O)(O2)C(=O)C(=O)N2CCCC[C@H]2C(=O)O[C@H]([C@H](C)C[C@@H]2CC[C@@H](OC(=O)C(C)(CO)CO)[C@H](OC)C2)CC(=O)[C@H](C)/C=C(\C)[C@@H](O)[C@@H](OC)C(=O)[C@H](C)C[C@H](C)/C=C/C=C/C=C/1C` [CCI-779, Rapamycin 42-ester with 3-hydroxy-2-(hydroxymethyl)-2-methylpropionic acid], the “growth of several human pancreatic tumors and one of two breast cancer lines” value (human tumor xenografts; in vivo) is listed as “inhibited”, the “activity against human tumor xenografts of diverse histological types” value (human tumor xenografts; gliomas particularly sensitive) is listed as “has activity” and the “growth factor (platelet-derived)-induced stimulation” value [1] is listed as “markedly suppressed”. For the same molecule, the cell cycle effect ([2]; in vitro tumor cells) was “arrested cells in the G1 phase”, the “growth of tumor cells” value ([2]; in vitro, CNS cancer, leukemia (T-cell), breast cancer, prostate cancer and melanoma lines among the most sensitive) was “inhibit the growth” and the “activity in orthotopic glioma model” value (orthotopic glioma) was “active”. For the same molecule, the “stability of CCI-779” value [3] was “enhanced the stability”.
